The record followed here is US11738001B2, “Pharmaceutical combinations and methods for the treatment of diabetes and associated disorders” (OTAGO INNOVATION LIMITED, priority 2017, dated 2023).

The test system of data set [1] is diet-induced obese (DIO) mice. The data set can be described thus: intraperitoneal glucose tolerance test (ipGTT), acute oral treatment (Experiments 1-5). The settings on record: HFD 4 weeks. The class given is in vivo, C57BL/6 mice. Here is the method:
(§1) For all experiments, 12-14 weeks old male C57BL/6 mice were obtained from the University of Otago animal facility. All procedures were approved by the University of Otago Animal Ethics Committee. Mice were housed individually under a 12:12 h light/dark cycle and ambient temperature was 23° C. Animals had either access to low-fat diet (LFD, containing 10% fat; cat. no. D12450B; Research Diets) or high-fat diet (HFD, containing 60% fat; cat. No. D12492; Research Diets) for a duration of 4 weeks, and water ad libitum. For each experiment a new cohort of animals was employed.
For all experiments, the formulations were prepared by forming an ethanol solution of the selected active ingredient(s), i.e. B, I or S individually, the mix or the extract, and then diluting to the desired concentration with 0.9 wt % NaCl aqueous solution.
To investigate whether the compounds either individually, a mixture of all three compounds (B, S and I; hereinafter referred to as “mix”) or the total extract of yellow Dahlia ‘Ruskin Diane’ petals acutely affect glucose homeostasis, intraperitoneal glucose tolerance tests (ipGTTs) were performed in diet-induced obese (DIO) mice as a model to mimic human prediabetes and impairments in glucose metabolism. Individual compounds, the mix or the total extract were dissolved in 0.9% NaCl containing 5% ethanol and administered orally. Mice (n=7-8/group) were fed either a high fat diet (HFD) or respective low fat diet (LFD) for 4 weeks, fasted for 16 h and received the different compounds/combinations or vehicle (0.9% NaCl containing 5% ethanol) by oral gavage. For example, for administration to a 50 g mouse, an oral gavage having a volume of 500 μl was prepared, the oral gavage contained 500 μg of extract or 50 μg of compound(s). The volume of the gavage administered was adjusted based on the weight of the mouse subject. Glucose (1.5 g/kg body weight; dissolved in 0.9% NaCl) was injected intraperitoneally (i.p.) 60 minutes after oral gavage treatment, and an ipGTT was performed. Blood glucose levels were measured using a commercially available glucometer (Accu-Check Performa; Roche) whilst truncating the tip of the tail with a fresh scalpel blade. For statistical validation, the area under the curve (AUC) was calculated.
These experiments establish dose responses of the individual compounds using different concentrations (20, 10, 3.3, 1, 0.33 mg/kg body weight), the mix (20, 10, 3.3, 1, 0.33 mg/kg body weight) or the extract (50, 20, 10, 3.3, 1 mg/kg) to determine the highest non-effective dose to allow for testing of synergism in combination with commercially available diabetes drugs in subsequent experiments. Mice were fed either LFD or HFD 4 weeks (Experiments 4 and 5). After mice were food deprived for 16 hours, an pGTT was carried out as previously described.
(§2) Data were analysed by one-way ANOVA or repeated measures ANOVA followed by multiple comparison test, as appropriate, using GraphPad Prism 5 software (Graphpad Software, Inc.). The results are presented as means ±SEM, and differences were considered significant if p≤0.05.

A short description of data set [2]: stability of extract and butein in vitro (RPLC). The class given is physicochemical. Here is the method: Experiments were carried out on dissolving/dispersing Dahlia ‘Ruskin Diane’ extract into aqueous buffer. […] To confirm the cause of instability of the buffered extract, the stability of butein was assessed in aqueous buffer at pH7 (butein was stable at pH4). […] By contrast, butein was stable when diluted into EtOH and stored under ambient conditions (FIG. 16). […] The conversion of butein to sulfuretin is an oxidative cyclisation.

The nature of a further data set: solubility. The class given is physicochemical. Particulars: pH7 buffer solution.
The test system of data set [3] is diet-induced obese (DIO) mice. Nature of the data set: ipGTT after chronic metformin or pramlintide, alone or combined with the mix (Experiments 6-9). In kind it is in vivo, C57BL/6 mice. As for the experimental part:
as §1
Separate cohorts of mice were treated with the respective control injections. Mice were fasted for 16 h and an ipGTT was performed as described.
After chronic treatment with the well described antidiabetic drugs mice were fasted for 16 h and received the mix acutely (0.33 mg/kg; containing 5% ethanol). 60 minutes later we carried out an ipGTT as described previously.
as §2

In data set [4] the test system is phosphorylation of AKT (pAKT). The data set can be described thus: central insulin signalling: pAKT immunoreactive cells in the arcuate nucleus (Experiment 10). In kind it is in vivo, C57BL/6 mice. Particulars: insulin 1 mg/kg 15 min before perfusion; LFD and HFD fed mice vs vehicle-injected. Here is the method:
To identify a mode of action of how the compounds, formulations and the extract affect glucose homeostasis, effects on central insulin signalling by measuring phosphorylation of AKT (pAKT) were investigated. AKT is the main target of insulin in the arcuate nucleus of the hypothalamus. To assess the degree of insulin action in the hypothalamus, phosphorylated AKT positive cells were counted. Mice were fed LFD or HFD for 4 weeks, fasted for 16 h and bodyweight matched. Sixty minutes before transcardial perfusion they received B (10 mg/kg), I (10 mg/kg), S (10 mg/kg), the mix (3.3 mg/kg of each compound), the extract (10 mg/kg) or vehicle (0.9% NaCl containing 5% ethanol) by oral gavage. Additionally, mice received an insulin (1 mg/kg) or vehicle injection 15 minutes before transcardial perfusion. Immunohistochemistry was carried out on mouse brain coronal cryosections as described previously in Benzler J, et al. Diabetes. […]
To investigate the molecular mechanisms and to identify the molecular targets of the mix and the extract, mice were fed either a HFD or LFD for 4 weeks followed by treatment with the mix (3.3 mg/kg body weight each) or the extract (10 mg/kg) acutely by oral gavage. […] The target protein of the insulin signalling pathway, pAKT, was visualized by immunohistochemistry and quantified by counting pAKT immunoreactive cells.

Where [5] appears, read: Experiment 1: 10 mg/kg (mix: 3.3 mg/kg of each compound) oral gavage 1 h before ipGTT, vs HFD control.
Setting [6] is: Experiment 3: 3.3 mg/kg (each) orally 1 h before ipGTT.

For the molecule `O=C(/C=C/c1ccc(O)c(O)c1)c1ccc(O)cc1O` [B, Butein], the “glucose tolerance in ipGTT” value was “did not improve glucose tolerance” in data set [1] (setting [5]) and “no effect on glucose tolerance” in data set [1] (Experiment 2: 3.3 mg/kg of each compound orally 1 h before ipGTT, vs vehicle treated HFD mice). The stability result is “linear (zero order kinetics) conversion of butein to sulfuretin over time” in data set [2] (EtOH or DMSO solutions diluted into aqueous buffer at pH7, room temperature); “stable” in data set [2] (aqueous buffer pH4); “stable” in data set [2] (diluted into EtOH and stored under ambient conditions). The “rate of conversion to sulfuretin” value in data set [2] (attempts to exclude oxygen) is given as “slowed the reaction”; in data set [2] (excluding light and adding a radical inhibitor), “no effects on reaction rate”. Besides, in the data set “solubility”, the solubility result is “limited solubility”.

As for `O=C1/C(=C/c2ccc(O)c(O)c2)Oc2cc(O)ccc21` [S, Sulfuretin], the “glucose tolerance in ipGTT” value is “significantly improve glucose tolerance” in data set [1] (setting [5]) and “improved glucose tolerance” in data set [1] (setting [6]).

As for `CC[C@H](C)[C@H](NC(=O)[C@@H]1CCCN1C(=O)CNC(=O)[C@H](Cc1ccccc1)NC(=O)[C@H](CC(N)=O)NC(=O)[C@H](CC(N)=O)NC(=O)[C@H](CO)NC(=O)[C@H](CO)NC(=O)[C@H](Cc1c[nH]cn1)NC(=O)[C@@H](NC(=O)[C@H](CC(C)C)NC(=O)[C@H](Cc1ccccc1)NC(=O)[C@H](CC(N)=O)NC(=O)[C@H](C)NC(=O)[C@H](CC(C)C)NC(=O)[C@H](CCCNC(=N)N)NC(=O)[C@H](CCC(N)=O)NC(=O)[C@@H](NC(=O)[C@H](C)NC(=O)[C@@H]1CSSC[C@H](NC(=O)[C@@H](N)CCCCN)C(=O)N[C@@H](CC(N)=O)C(=O)N[C@@H]([C@@H](C)O)C(=O)N[C@@H](C)C(=O)N[C@@H]([C@@H](C)O)C(=O)N1)[C@@H](C)O)C(C)C)C(=O)N[C@@H](CC(C)C)C(=O)N1CCC[C@H]1C(=O)N1CCC[C@H]1C(=O)N[C@H](C(=O)N[C@@H](CC(N)=O)C(=O)N[C@H](C(=O)NCC(=O)N[C@@H](CO)C(=O)N[C@@H](CC(N)=O)C(=O)N[C@H](C(=O)N[C@@H](Cc1ccc(O)cc1)C(N)=O)[C@@H](C)O)C(C)C)[C@@H](C)O` [pramlintide], the “glucose tolerance in ipGTT” value is “improved glucose tolerance” in data set [3] (Experiment 8: 1000 μg/kg/d s.c. twice daily for 5 days, p=0.0497 vs vehicle HFD); “no significant effect on glucose homeostasis” in data set [3] (Experiment 8: the other concentrations (200, 40, 8, 1.6 μg/kg/d s.c.)); “neither pramlintide alone at 200 μg/kg/d body weight (FIG. 9A) nor the mix at 0.33 mg/kg body weight (FIG. 9B) was able to improve glucose tolerance” in data set [3] (Experiment 9: pramlintide 200 μg/kg/d s.c. last 5 days and/or mix 0.33 mg/kg oral 1 h before ipGTT, vs HFD vehicle). For the same molecule, in data set [3] (Experiment 8: s.c. twice daily for last 5 days, HFD 4 weeks), the highest non-effective dose is 200 μg/kg/d body weight.

Take `CN(C)C(=N)N=C(N)N` [metformin]: in data set [3] (Experiment 6: 300 mg/kg/d oral, twice daily, last 7 days, p=0.004 vs HFD control), the “glucose tolerance in ipGTT” value is listed as “improved glucose tolerance”. Moreover, the “highest dose that did not improve glucose tolerance” value in data set [3] (Experiment 6: oral gavage twice daily for last 7 days, HFD 4 weeks) came to 100 mg/kg body weight.

As for `O=C(/C=C/c1ccc(O)cc1)c1ccc(O)cc1O` [I, Isoliquiritigenin], the “glucose tolerance in ipGTT” value is “trend towards an improved glucose homeostasis” in data set [1] (setting [5]) and “improved glucose tolerance” in data set [1] (setting [6]). Also, the “stability (concentration over time)” value in data set [2] is listed as “decreased in concentration much more slowly”.

Take “Insulin: insulin (1 mg/kg) injected to activate the insulin signalling pathway”: in data set [4], the “pAKT positive cells in the arcuate nucleus” value is reported as “markedly increased pAKT positive cells”.
